Molecules are shown by their SMILES. A value given as a limit tells only on which side of the number the result lay.

Experiment [1] addresses phosphorylated ERBB2 (pERBB2) (Homo sapiens (Human), UniProt P04626). In words: Detection of phosphorylated ERBB2 (pERBB2) by ELISA in BT-474 cells. The class given is cell-based. Particulars: four hours incubation with compound. The method, then:
BT-474 cells were seeded into a 96-well at 2.0*10^4cells/100 μl/well. Compounds were dissolved and serially diluted in DMSO. The compounds were then were added, mixed, and incubated for four hours at 37° C., 5% CO2. […] Following the four hour incubation with compounds, cell lysates were prepared. Plates were centrifuged for 5 min at 3000 RPM, and supernatant was removed from each well. Cells were washed 3 times by resuspension in 150 μl PBS, followed by centrifugation and removal of the supernatant, as above. 100 μl of cell lysis buffer (Boston BioProducts, cat #BP-115D) supplied with 1×complete ULTRA cocktail inhibitor (Thermo ScientificTM, cat #78443) was then added to the washed cells. Cells were incubated with lysis buffer for 1 hour at 4° C., and then stored at -80° C. Enzyme-linked immunosorbent assays (ELISA) were performed to measure phosphorylated ERBB2 levels. […] The next day, plates were washed with PBS+0.05% Tween20 (PBST). 150 μl of 5% BSA blocking solution was added for 1 hour at room temperature, with shaking. Plates were washed with PBST. Cell lysates were thawed and 100 μl of lysate was added to the ELISA plate. The plates were incubated for 2 hours at room temperature, with shaking. ELISA plates were then washed with PBST and 100 μl of an HRP-labeled detection antibody that binds phosphorylated tyrosine (R&D Systems, cat #841913) was added to each well. Plates were incubated for 1 hour at room temperature, with shaking. Plates were then washed with PBST, and 100 μl TMB substrate solution (R&D Systems, cat #DY999) was added. Plate were incubated in the dark for 20 minutes at room temperature. 50 μl of Stop solution (R&D Systems, cat #DY994) (50 μl) was added to each well and mixed. […] The remaining kinase activity by calculated using the following formula: % Relative activity=100×([…]). The low and high control values (“LC” and “HC”) were generated from lysate from wells without cells or with cells treated with 0.1% DMSO, respectively.

Experiment [2] deals with phosphorylated EGFR (pEGFR) (Homo sapiens (Human), UniProt P00533). The experiment can be described thus: Detection of phosphorylated EGFR (pEGFR) by AlphaLISA in A431 cells. The class given is cell-based. Particulars: A431 cells (10% FBS), 4 hours incubation, EGF 30 ng/mL for 10 minutes. As for the experimental part: […] were performed to measure phosphorylated EGFR levels using A431 cells (10% FBS). A431 (1.0*10^4cells/40 μl/well) cells were seeded in 384 well. Compounds were dissolved in DMSO, serially diluted in DMSO and then were added, mixed, and incubated for 4 hours at 37° C., […]. Following the 4-hours incubation, cells were stimulated for 10 minutes with EGF (Invitrogen, cat #PHG0311) at a final concentration of 30 ng/mL in the incubator. The media was aspirated and cells were lysed in 10 μL lysis buffer with protease and phosphatase inhibitors (PerkinElmer, cat #ALSU-PEGFR-A50K). The plates were placed on a shaker for 5 minutes and then incubated for 30 min at 4° C. for complete lysis. The lysate was transferred to an Optiplate (Perkin Elmer, cat #6007290).
Sequence of phosphorylated EGFR (pEGFR) (P00533 25-1210): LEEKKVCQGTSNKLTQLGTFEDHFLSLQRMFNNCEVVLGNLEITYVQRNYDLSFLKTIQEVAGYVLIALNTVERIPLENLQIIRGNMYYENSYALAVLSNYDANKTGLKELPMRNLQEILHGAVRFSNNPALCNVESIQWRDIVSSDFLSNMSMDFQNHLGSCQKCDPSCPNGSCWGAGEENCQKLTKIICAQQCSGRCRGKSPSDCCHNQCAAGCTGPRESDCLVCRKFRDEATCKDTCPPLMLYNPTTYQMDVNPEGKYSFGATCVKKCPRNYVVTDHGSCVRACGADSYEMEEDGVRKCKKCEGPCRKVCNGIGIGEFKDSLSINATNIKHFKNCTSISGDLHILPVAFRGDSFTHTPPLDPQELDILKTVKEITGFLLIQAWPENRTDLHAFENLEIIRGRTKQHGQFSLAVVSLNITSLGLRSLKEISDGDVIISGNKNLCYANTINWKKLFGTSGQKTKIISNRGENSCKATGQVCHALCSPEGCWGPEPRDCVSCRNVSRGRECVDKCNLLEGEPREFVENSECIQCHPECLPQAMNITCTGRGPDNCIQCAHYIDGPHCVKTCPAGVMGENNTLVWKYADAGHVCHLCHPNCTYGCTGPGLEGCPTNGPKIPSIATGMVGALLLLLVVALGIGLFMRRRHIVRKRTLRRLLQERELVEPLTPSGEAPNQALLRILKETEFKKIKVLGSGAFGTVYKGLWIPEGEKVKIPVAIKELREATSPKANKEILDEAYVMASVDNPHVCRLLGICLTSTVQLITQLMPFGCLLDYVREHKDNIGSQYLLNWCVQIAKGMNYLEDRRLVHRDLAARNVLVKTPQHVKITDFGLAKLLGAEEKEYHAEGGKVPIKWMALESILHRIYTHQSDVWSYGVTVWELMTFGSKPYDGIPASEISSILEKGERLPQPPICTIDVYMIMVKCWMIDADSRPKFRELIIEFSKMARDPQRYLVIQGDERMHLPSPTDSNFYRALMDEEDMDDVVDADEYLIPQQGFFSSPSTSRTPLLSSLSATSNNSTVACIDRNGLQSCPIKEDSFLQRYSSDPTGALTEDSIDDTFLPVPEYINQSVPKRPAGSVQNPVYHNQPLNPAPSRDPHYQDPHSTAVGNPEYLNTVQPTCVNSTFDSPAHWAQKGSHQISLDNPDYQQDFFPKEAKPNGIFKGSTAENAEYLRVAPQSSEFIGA
Acceptor mix (PerkinElmer, cat #ALSU-PEGFR-A50K) was prepared just before use and 5 μL was dispensed to all the wells, followed by a 1.5-2 h incubation at room temperature in dark. The donor mix (PerkinElmer, cat #ALSU-PEGFR-A50K) was prepared under low light conditions prior to use and 5 μl of donor mix was added to all the wells under subdued lighting or green filters. The plates were placed on a shaker for 5 min, sealed, and incubated overnight at room temperature in dark. Plates were read on the Envision (PerkinElmer) using standard AlphaLISA settings.
The percentage of inhibition on EGFR phosphorylation was calculated following equation: % Inhibition=100×(LumHC−LumSample)/(LumHC−LumLC). The low and high controls (LC/HC) are generated from lysate from wells with cells treated with DMSO or […] Staurosporine (BioAustralis, cat #BIA-S1086), […]. IC50 values were calculated by fitting the Curve using XLfit (v5.3.1.3), equation 201: Y=Bottom+(Top−Bottom)/(1+10^((LogIC50−X)*HillSlope)).
In general terms: In Alpha technology, singlet oxygen from a donor bead excites a nearby acceptor bead.

Sequence of phosphorylated ERBB2 (pERBB2) (P04626 23-1255): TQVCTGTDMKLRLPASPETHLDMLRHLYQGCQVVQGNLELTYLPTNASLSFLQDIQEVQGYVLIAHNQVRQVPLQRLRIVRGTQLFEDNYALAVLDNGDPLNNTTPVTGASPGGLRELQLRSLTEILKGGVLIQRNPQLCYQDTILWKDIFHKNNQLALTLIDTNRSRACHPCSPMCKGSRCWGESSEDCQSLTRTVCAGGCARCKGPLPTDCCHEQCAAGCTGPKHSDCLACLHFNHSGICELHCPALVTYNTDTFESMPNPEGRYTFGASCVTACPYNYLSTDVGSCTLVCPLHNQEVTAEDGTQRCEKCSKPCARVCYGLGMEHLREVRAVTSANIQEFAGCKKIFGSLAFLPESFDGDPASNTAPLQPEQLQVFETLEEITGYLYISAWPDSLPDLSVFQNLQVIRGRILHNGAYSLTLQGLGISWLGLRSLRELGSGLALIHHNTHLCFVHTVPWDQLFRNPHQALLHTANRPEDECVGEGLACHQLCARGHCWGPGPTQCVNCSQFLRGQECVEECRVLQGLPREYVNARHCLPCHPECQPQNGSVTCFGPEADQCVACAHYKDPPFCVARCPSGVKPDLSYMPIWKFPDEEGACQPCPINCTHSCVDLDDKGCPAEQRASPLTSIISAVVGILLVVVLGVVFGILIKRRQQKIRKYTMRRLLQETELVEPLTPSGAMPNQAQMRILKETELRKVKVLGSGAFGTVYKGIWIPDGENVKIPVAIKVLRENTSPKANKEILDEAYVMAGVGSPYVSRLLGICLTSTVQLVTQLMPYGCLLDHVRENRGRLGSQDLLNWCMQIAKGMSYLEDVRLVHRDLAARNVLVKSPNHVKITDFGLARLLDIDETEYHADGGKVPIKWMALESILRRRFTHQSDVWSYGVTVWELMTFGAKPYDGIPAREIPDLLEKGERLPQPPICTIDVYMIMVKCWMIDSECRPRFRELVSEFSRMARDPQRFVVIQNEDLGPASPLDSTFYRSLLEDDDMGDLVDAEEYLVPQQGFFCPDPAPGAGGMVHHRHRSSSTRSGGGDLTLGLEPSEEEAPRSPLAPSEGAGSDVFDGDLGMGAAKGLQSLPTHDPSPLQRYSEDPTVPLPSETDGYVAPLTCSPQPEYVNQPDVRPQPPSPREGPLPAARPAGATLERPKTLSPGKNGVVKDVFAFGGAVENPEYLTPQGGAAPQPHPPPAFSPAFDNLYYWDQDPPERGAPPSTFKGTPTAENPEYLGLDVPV

By IC50 is commonly meant the concentration that gives 50% inhibition. Turning to `Cc1cc(Nc2ncnc3cc4c(nc23)N2CCN(C(=O)/C=C/[C@H]3CCCN3C)C(CO4)C2)ccc1Oc1ccn2ncnc2c1` (stereo in doubt) [Compound 27, (E)-1-((10S)-4-((4-([1,2,4]triazolo[1,5-a]pyridin-7-yloxy)-3-methylphenyl)amino)-7,8,10,11-tetrahydro-9H-6,10-methanopyrimido[4′,5′:5,6]pyrido[3,2-b][1,4,7]oxadiazonin-9-yl)-3-((R)-1-methylpyrrolidin-2-yl)prop-2-en-1-one], the IC50 in experiment [1] was 14.4 nM; in experiment [2], 5.26 µM.

As for `Cc1cc(Nc2ncnc3cc4c(c(F)c23)N2CCN(C(=O)/C=C/CN(C)C)C(CO4)C2)ccc1Oc1ccn2ncnc2c1` (stereo in doubt) [Compound 40, (E)-1-((10S)-4-((4-([1,2,4]triazolo[1,5-a]pyridin-7-yloxy)-3-methylphenyl)amino)-5-fluoro-7,8,10,11-tetrahydro-9H-6,10-methano[1,4,7]oxadiazonino[3,2-g]quinazolin-9-yl)-4-(dimethylamino)but-2-en-1-one], the concentration for half-maximal inhibition (IC50) was 18.5 nM in experiment [1] and above 10 µM in experiment [2].

For the compound `CC#CC(=O)N1CCN2CC1COc1cc3ncnc(Nc4ccc(Oc5ccn6ncnc6c5)c(C)c4)c3cc12` (stereo in doubt) [Compound 12, 1-((10S)-4-((4-([1,2,4]triazolo[1,5-a]pyridin-7-yloxy)-3-methylphenyl)amino)-7,8,10,11-tetrahydro-9H-6,10-methano[1,4,7]oxadiazonino[3,2-g]quinazolin-9-yl)but-2-yn-1-one], the results for the IC50 in experiment [1] and in experiment [2] were 42.8 nM and 7.06 µM, respectively.

For the compound `CC#CC(=O)N1CCN2CC1COc1cc3ncnc(Nc4ccc(Oc5ccc6c(c5)ncn6C)c(C)c4)c3cc12` (stereo in doubt) [Compound 11, 1-((10S)-4-((3-methyl-4-((1-methyl-1H-benzo[d]imidazol-5-yl)oxy)phenyl)amino)-7,8,10,11-tetrahydro-9H-6,10-methano[1,4,7]oxadiazonino[3,2-g]quinazolin-9-yl)but-2-yn-1-one], the IC50 in experiment [1] is 103 nM; in experiment [2] it was above 10 µM.

For `Cc1ccc(Oc2ccc(Nc3ncnc4cc5c(nc34)N3CCN(C(=O)/C=C/CN(C)C)C(CO5)C3)cc2C)cn1` (stereo in doubt) [Compound 21, (E)-4-(dimethylamino)-1-((10S)-4-((3-methyl-4-((6-methylpyridin-3-yl)oxy)phenyl)amino)-7,8,10,11-tetrahydro-9H-6,10-methanopyrimido[4′,5′:5,6]pyrido[3,2-b][1,4,7]oxadiazonin-9-yl)but-2-en-1-one], the figures for the 50% inhibitory concentration (IC50) in experiment [1] and in experiment [2] were 25 nM and 0.621 µM, respectively.

As for `Cc1cc(Nc2ncnc3cc4c(nc23)N2CCN(C(=O)/C=C/[C@H]3CCCN3C)C(CO4)C2)c(F)cc1Oc1ccn2ncnc2c1` (stereo in doubt) [Compound 41, (E)-1-((10S)-4-((4-([1,2,4]triazolo[1,5-a]pyridin-7-yloxy)-2-fluoro-5-methylphenyl)amino)-7,8,10,11-tetrahydro-9H-6,10-methanopyrimido[4′,5′:5,6]pyrido[3,2-b][1,4,7]oxadiazonin-9-yl)-3-((R)-1-methylpyrrolidin-2-yl)prop-2-en-1-one], the IC50 came to 24.5 nM in experiment [1] and 7.3 µM in experiment [2].

For the compound `Cc1cc(Nc2ncnc3cc4c(nc23)N2CCN(C(=O)/C=C/CN(C)C)C(CO4)C2)c(F)cc1Oc1cncc(F)c1` (stereo in doubt) [Compound 44, (E)-4-(dimethylamino)-1-((10S)-4-((2-fluoro-4-((5-fluoropyridin-3-yl)oxy)-5-methylphenyl)amino)-7,8,10,11-tetrahydro-9H-6,10-methanopyrimido[4′,5′:5,6]pyrido[3,2-b][1,4,7]oxadiazonin-9-yl)but-2-en-1-one], the IC50 in experiment [1] came to 36 nM; in experiment [2], 0.337 µM.

The values are drawn from US20230382923A1, “FUSED TETRACYCLIC QUINAZOLINE DERIVATIVES AS INHIBITORS OF ERBB2” (EnLiven Therapeutics, Inc., priority 2021, published 2023).
